PMC10541190 (The Journal of Clinical Investigation, 2023)
pEC50: −log10 of the molar value. “And” between values parts separate entries of the source, which are not always exact repeats. Equal entries are not always repeated. Where two headings read alike, the source gives them in different places.

Tests used:
[1] = tested on: SARS-CoV-2 (USA-WA1/2020); assay: microbe, parasite or virus in culture; format: cell-based
in vitro [2] = details: African green monkey
in vitro [3] = details: human, U-87 MG cell viability (%)
in vitro [4] = details: human, Huh7 cell viability (%)

[N-]=[N+]=CC(=O)OC[C@H](N)C(=O)O [Aza-serine]
SARS-CoV-2 infection (%) ([1]; 0.2469 μM): 107.69% and 86.64% | SARS-CoV-2 infection (%) ([1]; 2.2222 μM): 7.01% and 8.09% | SARS-CoV-2 infection (%) ([1]; 6.6667 μM): 2.70% and 1.62% | SARS-CoV-2 infection (%) ([1]; 20 μM): 0.00% | Cell viability (%) (Vero cells; 0.2469 μM): 103.32% | Cell viability (%) (Vero cells; 2.2222 μM): 96.19% and 95.62% | Cell viability (%) (Vero cells; 6.6667 μM): 94.50% and 92.95% | Cell viability (%) (Vero cells; 20 μM): 91.48% and 89.75% | viability at 0.2469 µM (in vitro [2]; Cell viability (%), 0.2469 μM): 87.9% | viability at 2.2222 µM (in vitro [2]; Cell viability (%), 2.2222 μM): 89.7% | viability at 6.6667 µM (in vitro [2]; Cell viability (%), 6.6667 μM): 92.2% | viability at 20 µM (in vitro [2]; Cell viability (%), 20 μM): 87.1% | viability at 3.33 µM (in vitro [3]): 94.5% | viability at 10 µM (in vitro [3]): 84%

CNc1ccc2oc(C[C@H]3O[C@@]4(CC[C@H]3C)O[C@H]([C@H](C)C(=O)c3ccc[nH]3)[C@H](C)C[C@H]4C)nc2c1C(=O)O [Calci-mycin]
SARS-CoV-2 infection (%) ([1]; 0.625 μM): 17.53% and 16.18% and 16.52% | SARS-CoV-2 infection (%) ([1]; 1.25 μM): 0.00337% | SARS-CoV-2 infection (%) ([1]; 5 μM): 0.00337% | SARS-CoV-2 infection (%) ([1]; 20 μM): 0.00337% | Cell viability (%) (Vero cells; 0.625 μM): 91.36% and 94.20% | Cell viability (%) (Vero cells; 1.25 μM): 98.44% and 96.45% | Cell viability (%) (Vero cells; 5 μM): 93.68% and 94.54% | Cell viability (%) (Vero cells; 20 μM): 81.29% | viability at 0.625 µM (in vitro [2]; Cell viability (%), 0.625 μM): 89.2% | viability at 1.25 µM (in vitro [2]; Cell viability (%), 1.25 μM): 98.6% | viability at 5 µM (in vitro [2]; Cell viability (%), 5 μM): 93.5% | viability at 20 µM (in vitro [2]; Cell viability (%), 20 μM): 86.9% | viability at 0.37 µM (in vitro [3]): 103% | viability at 3.33 µM (in vitro [3]): 66.8% | viability at 10 µM (in vitro [3]): 58.2% | viability at […] (in vitro [3]): 82.3% and 103%

O=C1NCN(c2ccccc2)C12CCN(CCCC(c1ccc(F)cc1)c1ccc(F)cc1)CC2 [Fluspiri-lene]
SARS-CoV-2 infection (%) ([1]; 0.625 μM): 121.35% and 117.98% and 101.12% | SARS-CoV-2 infection (%) ([1]; 1.25 μM): 111.24% and 114.61% and 104.49% | SARS-CoV-2 infection (%) ([1]; 5 μM): 114.61% and 94.38% and 111.24% | SARS-CoV-2 infection (%) ([1]; 20 μM): 3.37% and 2.70% and 4.04% | Cell viability (%) (Vero cells; 0.625 μM): 103.85% and 102.73% | Cell viability (%) (Vero cells; 1.25 μM): 105.07% and 105.49% | Cell viability (%) (Vero cells; 5 μM): 94.12% and 91.52% | Cell viability (%) (Vero cells; 20 μM): 83.60% and 85.38% | viability at 0.625 µM (in vitro [2]; Cell viability (%), 0.625 μM): 105% | viability at 1.25 µM (in vitro [2]; Cell viability (%), 1.25 μM): 108% | viability at 5 µM (in vitro [2]; Cell viability (%), 5 μM): 94% | viability at 20 µM (in vitro [2]; Cell viability (%), 20 μM): 85.1% | viability at 0.37 µM (in vitro [3]): 97% | viability at 3.33 µM (in vitro [3]): 102% | viability at 10 µM (in vitro [3]): 93.8% | viability at […] (in vitro [3]): 97.8% and 97.9%

CO[C@@H]1[C@@H](O[C@@H]2O[C@H](C)[C@@H](O[C@H]3C[C@@](C)(O)[C@@H](OC(=O)CC(C)C)[C@H](C)O3)[C@H](N(C)C)[C@H]2O)[C@@H](CC=O)C[C@@H](C)[C@@H](O)/C=C/C=C/C[C@@H](C)OC(=O)C[C@H]1OC(C)=O [Josa-mycin]
SARS-CoV-2 infection (%) [1]: 107.69% and 101.94% | SARS-CoV-2 infection (%) ([1]; 2.22 μM): 48.50% and 53.93% | SARS-CoV-2 infection (%) ([1]; 6.67 μM): 16.19% and 21.54% | SARS-CoV-2 infection (%) ([1]; 20 μM): 8.09% and 10.77% | Cell viability (%) (Vero cells; 2.22 μM): 93.52% and 91.16% | Cell viability (%) (Vero cells; 6.67 μM): 93.20% and 88.03% | viability at 0.247 µM (in vitro [2]; Cell viability (%)): 102% | viability at 20 µM (in vitro [2]; Cell viability (%)): 89.7% | viability at 2.22 µM (in vitro [2]; Cell viability (%), 2.22 μM): 96.9% | viability at 6.67 µM (in vitro [2]; Cell viability (%), 6.67 μM): 93% | viability at 0.37 µM (in vitro [3]): 90.4% | viability at 3.33 µM (in vitro [3]): 91.6% | viability at 10 µM (in vitro [3]): 100% | viability at […] (in vitro [3]): 91.6% and 95.3%

CO[C@@H]1[C@@H](O[C@@H]2O[C@H](C)[C@@H](O[C@H]3C[C@@](C)(O)[C@@H](OC(=O)CC(C)C)[C@H](C)O3)[C@H](N(C)C)[C@H]2O)[C@@H](CC=O)C[C@@H](C)[C@@H](O)/C=C/C=C/C[C@@H](C)OC(=O)C[C@H]1OC(C)=O [Josamycin]
pEC50 ([1]; Severe acute respiratory syndrome coronavirus 2, Vero, 24 h, read-out: SARS-CoV-2 EC50): 5.62 | CC50 (in vitro [2]): > 20 µM | viability at 0.37 µM (in vitro [4]): 94.1% | viability at 3.33 µM (in vitro [4]): 97.2% | viability at 10 µM (in vitro [4]): 98.2% | viability at […] (in vitro [4]): 96.6% and 93.2%

CN(C)C(=O)C(CCN1CCC(O)(c2ccc(Cl)cc2)CC1)(c1ccccc1)c1ccccc1 [Lopera-mide]
Cell viability (%) (Vero cells; African green monkey, 20 µM): 99.64% | viability at 0.625 µM (in vitro [2]; Cell viability (%)): 115% | viability at 1.25 µM (in vitro [2]; Cell viability (%)): 121% | viability at 5 µM (in vitro [2]; Cell viability (%)): 105% | viability at 20 µM (in vitro [2]; Cell viability (%)): 98.5% | viability at 0.37 µM (in vitro [3]): 98.7% | viability at 3.33 µM (in vitro [3]): 101% | viability at 10 µM (in vitro [3]): 97.5% | viability at […] (in vitro [3]): 100% and 98.5%

CN(C)C(=O)C(CCN1CCC(O)(c2ccc(Cl)cc2)CC1)(c1ccccc1)c1ccccc1 [Loperamide]
CC50 (in vitro [2]): > 20 µM | viability at 0.123 µM (in vitro [4]): 92.4% | viability at 0.37 µM (in vitro [4]): 91.8% | viability at 3.333 µM (in vitro [4]): 88.9% | viability at 10 µM (in vitro [4]): 68.3%

O[C@H]1[C@H]2c3cc4c(cc3CN3CCC(=C[C@@H]1O)[C@H]23)OCO4 [Lyco-rine]
SARS-CoV-2 infection (%) ([1]; 0.625 μM): 7.08% and 5.06% and 8.76% | SARS-CoV-2 infection (%) ([1]; 1.25 μM): 0.34% and 0.40% and 0.24% | SARS-CoV-2 infection (%) ([1]; 5 μM): 0.00337% | SARS-CoV-2 infection (%) ([1]; 20 μM): 0.00337% | Cell viability (%) (Vero cells; 0.625 μM): 98.69% | Cell viability (%) (Vero cells; 1.25 μM): 103.60% and 104.02% | Cell viability (%) (Vero cells; 5 μM): 84.99% and 87.96% | Cell viability (%) (Vero cells; 20 μM): 88.99% and 91.05% | viability at 0.625 µM (in vitro [2]; Cell viability (%), 0.625 μM): 93.8% | viability at 1.25 µM (in vitro [2]; Cell viability (%), 1.25 μM): 97.9% | viability at 5 µM (in vitro [2]; Cell viability (%), 5 μM): 83% | viability at 20 µM (in vitro [2]; Cell viability (%), 20 μM): 83%

CC[C@@]1([C@@H]2O[C@@H]([C@H]3O[C@@](O)(CO)[C@H](C)C[C@@H]3C)C[C@@H]2C)CC[C@H]([C@]2(C)CC[C@]3(C[C@H](O)[C@@H](C)[C@@H]([C@@H](C)[C@@H](OC)[C@H](C)C(=O)O)O3)O2)O1 [Monen-sin]
SARS-CoV-2 infection (%) ([1]; 0.625 μM): 74.16% and 84.27% and 91.01% | SARS-CoV-2 infection (%) ([1]; 1.25 μM): 33.71% and 60.67% and 53.93% | SARS-CoV-2 infection (%) ([1]; 5 μM): 0.0742% and 0.09% and 0.07% | SARS-CoV-2 infection (%) ([1]; 20 μM): 0.0337% | Cell viability (%) (Vero cells; 0.625 μM): 106.13% and 103.45% | Cell viability (%) (Vero cells; 1.25 μM): 110.73% and 112.93% | Cell viability (%) (Vero cells; 5 μM): 95.75% and 98.96% | Cell viability (%) (Vero cells; 20 μM): 97.54% and 96.71% | viability at 0.625 µM (in vitro [2]; Cell viability (%), 0.625 μM): 103% | viability at 1.25 µM (in vitro [2]; Cell viability (%), 1.25 μM): 113% | viability at 5 µM (in vitro [2]; Cell viability (%), 5 μM): 100% | viability at 20 µM (in vitro [2]; Cell viability (%), 20 μM): 98.8% | viability at 0.37 µM (in vitro [3]): 82% | viability at 3.33 µM (in vitro [3]): 78.7% | viability at 10 µM (in vitro [3]): 79.7% | viability at […] (in vitro [3]): 79.2% and 83.3%
